# “Also recorded” adds a separate entry of the source.
# Legend:
# [1] = tested on: Dehalococcoides; experiment: qRT-PCR of Dehalococcoides 16S rRNA genes in BDI cultures; format: cell-based; conditions: for effect on growth of Dehalococcoides in BDI cultures: 1.5 μM TCC or 35 μM TCS; for Dehalococcoides 16S rRNA gene copies, day 27 / Dehalococcoides 16S rRNA gene copies, initial: BDI with 1.5 μM TCC or 35 μM TCS
# Description: (§1) Quantitative real-time PCR (qRT-PCR) was performed for enumeration of general 16S rRNA genes and Dehalococcoides 16S rRNA genes in culture DehaloR̂2 and Bio-Dechlor INOCULUM. The primers used for general 16S rRNA genes were Bac1055F (5′-ATG GYT GTC GTC ACCT-3′) and Bac1392R (5′-ACG GGC GGT GTG TAC-3′) (Ritalahti et al., 2006), and the probe was Bac16sTaq (FAM-CAA CGA GCG CAA CCC/3-BHQ-1/). The final volume of PCR reactions was 10 μL, and the final concentration of each chemical in a single reaction tube was: 1× RealMasterMix (Fisher Scientific, Pittsburgh, Pa.), 300 nM Probe, 300 nM each Primer, and 130 nM DNA samples. The PCR conditions were as follows: 2 min at 95° C. followed by 40 cycles of 10 s at 95° C., 20 s at 56° C. and 20 s at 68° C. The primers used for Dehalococcoides 16S rRNA genes were Dhc1200F (5′-CTGGAGCTAATCCCCAAAGCT-3′) and Dhc1271R (5′-CAA CTT CAT GCA GGC GGG-3′), and the probe was Dhc1240Pr (FAM-TCCTCAGTTCGGATTGCAGGC TGAA/3-BHQ-1) (He et al., 2003b). The final volume of PCR reactions was 10 μL, and the final concentration of each chemical in a single reaction tube was: 1× RealMasterMix (Fisher Scientific, Pittsburgh, Pa.), 200 nM Probe, 700 nM each Primer, and 130 nM DNA samples. The PCR conditions were as follows: 2 min at 95° C. followed by 40 cycles of 15 s at 95° C., 20 s at 58° C. and 20 s at 68° C.
# (§2) Quantitative Real time PCR (qRT-PCR) was carried out in a spectrofluorimetric thermal cycler (Master cycler, epgradient S, Eppendorf). Calibration curves were performed in triplicate and a linear range of 6 orders of magnitude was obtained. Plasmids containing Dehalococcoides strain BAV1 16S rRNA genes were used as standards to construct general 16S rRNA genes and Dehalococcoides 16S rRNA genes calibration curves. The slopes of the calibration curves for general 16S rRNA genes and Dehalococcoides 16S rRNA genes were −3.46 and −3.94, and the Y intercepts were 38 and 44.2, respectively.
# (§3) DNA Extraction and Quantitative Real-Time PCR. The BDI cultures and DehaloR^2 cultures were shaken vigorously first and then 10 ml of the mixed liquid was removed with a sterile syringe and dispensed into 10 1.5 ml micro centrifuge tubes. These micro centrifuge tubes were then centrifuged at 13,000 rpm for 15 min in order to make a pellet, and the pellet was used for DNA extraction. Qiagen DNeasy Blood & Tissue Kit with modifications to enhance lysis was used for DNA isolation from cultures. DNA samples were stored at −20° C.
# (§4) Quantitative real-time PCR (qRT-PCR) was performed for enumeration of general 16S rRNA genes and Dehalococcoides 16S rRNA genes in BDI culture without TCC&TCS, BDI culture with 1.5 μM TCC, BDI culture with 35 μM TCS, D DehaloR̂2 culture without TCC&TCS, DehaloR^2 culture with 1.5 μM TCC and DehaloR̂2^2 culture with 35 μM TCS.
# (§5) The primers used for Dehalococcoides 16S rRNA genes were Dhc1200F (5′-[…]-3′) and Dhc1271R (5′-CAACTTCATGCAGGCGGG-3′), and the probe was Dhc1240Pr (FAM-[…]/3-BHQ-1) (He et al., 2003b). The final volume of PCR reactions was 10 μL, and the final concentration of each chemical in a single reaction tube was: 1× RealMasterMix (Fisher Scientific, Pittsburgh, Pa.), 200 nM Probe, 700 nM each Primer, and 130 nM DNA samples. The PCR conditions were as follows: 2 min at 95° C. followed by 40 cycles of 15 s at 95° C., 20 s at 58° C. and 20 s at 68° C.
# as §2, with “The qRT-PCR” for “Quantitative Real time PCR (qRT-PCR)”
# [2] = tested on: general bacteria; experiment: qRT-PCR of general bacteria 16S rRNA genes in BDI cultures; format: cell-based; conditions: BDI with 1.5 μM TCC or 35 μM TCS
# Description: as §1, §2, §3
# as §4, with “TCS. […]” for “TCS.”
# [3] = tested on: Dehalococcoides; experiment: qRT-PCR of Dehalococcoides 16S rRNA genes in DehaloR̂2 cultures; format: cell-based; conditions: for effect on growth / gene copy number of Dehalococcoides in DehaloR̂2 cultures: 1.5 μM TCC or 35 μM TCS
# Description: as §1, §2, §3, §4, §5
# (§6) The qRT-PCR was carried out in a spectrofluorimetric thermal cycler (Master cycler, epgradient S, Eppendorf). […]
# [4] = tested on: general bacteria; experiment: qRT-PCR of general bacteria 16S rRNA genes in DehaloR̂2 cultures; format: cell-based; conditions: for General bacteria 16S rRNA gene copies, day 22 / General bacteria 16S rRNA gene copies, initial: DehaloR̂2 with 1.5 μM TCC or 35 μM TCS
# Description: as §1, §2, §3, §4
# The primers used for general 16S rRNA genes were Bac1055F (5′-ATGGYTGTCGTCAGCT-3′) and Bac1392R (5′-ACGGGCGGTGTGTAC-3′) (Ritalahti et al., 2006), and the probe was Bac16sTaq (FAM-CAACGAGCGCAACCC/3-BHQ-1/). The final volume of PCR reactions was 10 μL, and the final concentration of each chemical in a single reaction tube was: 1× RealMasterMix (Fisher Scientific, Pittsburgh, Pa.), 300 nM Probe, 300 nM each Primer, and 130 nM DNA samples. The PCR conditions were as follows: 2 min at 95° C. followed by 40 cycles of 10 s at 95° C., 20 s at 56° C. and 20 s at 68° C.
# as §6
# [5] = at 25° C.; cited from earlier work
# [6] = anaerobic conditions, within 70 days; cited from earlier work
# [7] = tested on: Gram-negative species and fungi; conditions: cited from earlier work
# [8] = tested on: P. aeruginosa; conditions: cited from earlier work
# [9] = tested on: algae, aquatic invertebrates and fish; conditions: cited from earlier work
# [10] = tested on: aquatic organisms; conditions: according to PBT Profiler; cited from earlier work
SMILES,effect on growth of Dehalococcoides in BDI cultures [1],"Dehalococcoides 16S rRNA gene copies, day 27 [1]","Dehalococcoides 16S rRNA gene copies, initial [1]","General bacteria 16S rRNA gene copies, day 27 [2]","General bacteria 16S rRNA gene copies, initial [2]",effect on growth / gene copy number of Dehalococcoides in DehaloR̂2 cultures [3],"General bacteria 16S rRNA gene copies, day 22 [4]","General bacteria 16S rRNA gene copies, initial [4]","General bacteria 16S rRNA gene copies, day 22 relative to initial ([4]; DehaloR̂2 with 35 μM TCS) [times]",Vapor pressure [5],biodegradation in soil [6],"Dehalococcoides 16S rRNA gene copies, day 22 ([3]; DehaloR̂2 with 1.5 μM TCC)","Dehalococcoides 16S rRNA gene copies, day 22 relative to initial ([3]; DehaloR̂2 with 1.5 μM TCC) [times]","Dehalococcoides 16S rRNA gene copies, initial ([3]; DehaloR̂2 with 1.5 μM TCC)",concentration needed to inhibit Gram-negative species and fungi [7] [mg/L],activity in MIC experiments [8],Predicted No Effect Concentration (PNEC) [9] [µg/L],ratio of PEC/PNEC [9],concentration toxic to aquatic organisms [10] [µg/mL]
"Oc1cc(Cl)ccc1Oc1ccc(Cl)cc1Cl [TCS, 5-chloro-2-[2,4-dichloro-phenoxy]-phenol]",significantly inhibited the growth of Dehalococcoides,9.4×10^6 gene copies/ml,8.9×10^7 gene copies/ml,3.3×10^8 gene copies/ml,1.0×10^8 gene copies/ml,almost remained constant; also recorded: significantly inhibited the growth of Dehalococcoides,7.5×10^7 gene copies/ml,2.2×10^7 gene copies/ml,3.5,4.65 × 10^−6 mm Hg,little biodegradation,,,,,,,,
"O=C(Nc1ccc(Cl)cc1)Nc1ccc(Cl)c(Cl)c1 [TCC, 3-(4-chlorophenyl)-1-(3,4-dichlorphenyl) urea]",significantly inhibited the growth of Dehalococcoides,1.9×10^7 gene copies/ml,6.1×10^7 gene copies/ml,1.4×10^8 gene copies/ml,7.2×10^7 gene copies/ml,did not exert any inhibitory effect on the growth of Dehalococcoides,1.6×10^8 gene copies/ml,1.3×10^7 gene copies/ml,,3.61 × 10^−9 mm Hg,little biodegradation,3.9×10^7 gene copies/ml,11.6,3.3×10^6 gene copies/ml,1000,not,0.146,0.009 to 0.34,90
